Laboratory results published in patent US20210260069A1, “IRE1a INHIBITOR IN COMBINATION WITH CANCER [sequence] AGENT FOR CANCER TREATMENT” (Fosun Orinove PharmaTech, Inc., priority 2018, published 2021).

Key:
[1] = system: XBP1s; test: Determination of XBP1s level induced by various compounds (RT-qPCR splicing assay), several cell lines; assay type: cell-based, human; conditions: for induction of XBP1s: in a time, cell or concentration dependent manner; for ER stress measured by XBP1s level (FIG. 6): Hep G2, MCF-7 and RPMI 8226 cells, 1, 2 or 4 hours
Procedure: (§1) This method applies to any mammalian cell line but was typically applied to human MM1s myeloma cells for EC50 and RPMI 8826 plasmacytoma cells for confirmation of selected compounds. Briefly, cells were grown in standard conditions and spread into 96 well tissue culture plates. Cells were treated with compounds with indicated concentration using serial dilutions. DTT (dithiothreitol) or compounds were added at the same time and cells were harvested after indicated hour's treatment. Cells treated with DTT alone were used as 100% XBP1s positive controls and cell left untreated were used as base line XBP1s level.
(§2) Splicing Assay: Total RNA was isolated from cells treated with compounds using Applied Biosystems RNAqueous kit. 1 μg of total RNA was reverse transcribed using Oligo dt (12-18) (Invitrogen). The cDNA was then amplified at 95° C. for 8 min and 30 sec, then 40 cycles at 95° C. for 15 sec and 63° C. for 1 min. Samples were run against a purified standard curve for both spliced and unspliced XBP1, and further normalized to internal house-keeping gene GAPDH.

[2] = system: A549 cells; test: XBP1s level induced in A549 cells; assay type: cell-based, human
Procedure: as §1, with “Briefly,” for “This method applies to any mammalian cell line but was typically applied to human MM1s myeloma cells for EC50 and RPMI 8826 plasmacytoma cells for confirmation of selected compounds. Briefly,”
as §2
(§3) The same methods were used as above for Lestaurtinib.

[3] = system: RPMI 8226 tumor cells; test: Intratumoral XBP-1 spliced effect in Velcade treated RPMI xenografts; assay type: in vivo, Nude mice; conditions: Velcade 0.8 mg/kg IV on day 21 and day 24, RPMI 8226 xenograft
Procedure: The mice were treated again on the 24th day with Velcade®. On Day 27, the mice were treated with Orin 1001 at 30 mg/kg PO, four hours later the mice were sacrificed as in Example 25, and tumor tissues were isolated. In a similar way as described for the liver PD test in Example 25, RNA extraction and RT-PCR analysis gave the results as shown FIG. 13.
BALB/c mice were injected intraperitoneally with 100 microliters at an equivalent dose of 1 mg/kg tunicamycin solution. Two hours after tunicamycin injection, mice were dosed with compound of interest either PO or IV. Following 2 hours for PO delivery of compound, mice were euthanized according to IACUC protocols using CO2 from a […] source. A 1 cm^3 fragment of the liver for homogenization and extraction of the RNA were collected for further analysis. Total RNA is harvested from cells or tissue using TRIzol according to the manufacturer's procedures. After ethanol precipitation and resuspension of the RNA, RiboGreen (Invitrogen) is used to quantify the yield and normalize the RNA concentration in the source tube containing isolated RNA. RT-PCR is performed by Oligo(dT) priming, and SuperScript II (Invitrogen) transcription using the Amplitaq Gold Kit (Applied Biosystems) according to the manufacturer's protocols. […]

[4] = system: RPMI 8226 cells; test: XBP1s level induced in RPMI 8226 cells; assay type: cell-based, human
Procedure: as §1, with “Briefly,” for “This method applies to any mammalian cell line but was typically applied to human MM1s myeloma cells for EC50 and RPMI 8826 plasmacytoma cells for confirmation of selected compounds. Briefly,”
as §2, §3

[5] = system: Hep3B-Luc cells; test: Orthotopic Hep3B-luc human liver xenograft model (Example 22); assay type: in vivo, female BALB/c nude mice
Procedure: The tumor was inoculated by injecting Hep3B-Luc cells (established by WuXi AppTec R&D center) mixed with BD Matrigel in 20 μl (PBS:Matrigel=1:1) into the left lobe of the liver. […] Sorafenib was formulated with Cremophor® EL/ethanol (1:1) and purified water to form a solution of 9 mg/ml. […] Tumor weight was measured at the termination of study. T/Cweight value (in percent) was calculated using the formula: T/Cweight%=Tweight/Cweight×100%, while Tweight and Cweight were the mean tumor weights of the treated and the vehicle control groups, respectively.

[6] = system: human liver HUH-7 cells; test: Subcutaneous HUH-7 liver cancer xenograft model, survival (Example 23); assay type: in vivo, Female BALB/c nude mice
Procedure: Female BALB/c nude mice were subcutaneously inoculated with human liver HUH-7 cells (from JCRB) to establish a xenograft model of liver cancer. The scheduled administration cycle was 28 days. Animals were assigned into 4 groups (n=10/group): one vehicle group, two single treatment groups (Orin 1001 administered at 80 mg/kg/day q.d. for 28 days; Sorafenib administered following a dose regimen of 18.25 mg/kg/day q.d. for 5 days, then 25 mg/kg/day q.d. for 3 days, and then 45 mg/kg/day q.d. for 20 days, consecutively) and one combination treatment group (sorafenib administered following a dose regimen of 18.25 mg/kg/day q.d. for 5 days, then 25 mg/kg/day q.d. for 3 days, and then 45 mg/kg/day q.d. for 20 days, consecutively, whilst combined with Orin 1001 administered q.d. at a dose of 80 mg/kg/day for 28 days). All vehicle or administration treatments were given via oral gavage. Sorafenib was formulated with Kolliphor® EL/ethanol (2/1, v/v) and water. Orin 1001 was dissolved with cellulose microcrystalline and sucrose in purified water to form as suspension. The mice were euthanized if a tumor volume achieved over 2000 mm^3. Otherwise the experiment ended on the 6th day after the last administration.

[7] = system: MCF-7 cells; test: XBP1s level induced in MCF-7 cells; assay type: cell-based, human
Procedure: as §1, §2, §3

[8] = system: Hepatoma cells; test: XBP1s level induced in Hepatoma (Hep G2) cells; assay type: cell-based, human
Procedure: as §1, §2

[9] = system: human ovarian carcinoma A2780 tumor cells; test: A2780 ovarian carcinoma xenograft (Example 18); assay type: in vivo, female NCr nu/nu mice; conditions: Orin 1001 300 mg/kg/day oral 28 days; paclitaxel 15 mg/kg iv weekly; endpoint 2000 mm^3 or Day 60
Procedure: (§4) Orin 1001 was administered by oral gavage in a xenograft mouse model using female NCr nu/nu mice injected subcutaneously with human ovarian carcinoma A2780 tumor cells. Animals were assigned to 4 groups (n=6/group); Vehicle control administered by oral gavage for 28 days, Orin 1001 administered via oral gavage at 300 mg/kg/day for 28 consecutive days, paclitaxel administered weekly by iv at 15 mg/kg, or Orin 1001 administered in combination with paclitaxel.
The percent tumor growth delay was calculated using the following equation: TGD (%)=[T-C/C]×100, where T-C is the difference in time to tumor endpoint from Treated (T) and Control (C).

[10] = system: human breast adenocarcinoma MDA-MB231 tumor cells; assay type: in vivo; conditions: Orin 1001 300 mg/kg where given; paclitaxel 10 mg/kg iv weekly; n=10/group
Procedure: Orin 1001 was administered by oral gavage in combination with paclitaxel in a xenograft mouse model using female NCr nu/nu mice (n=10 in each group) injected subcutaneously with human breast adenocarcinoma MDA-MB231 tumor cells. To evaluate the effect of Orin 1001 in combination with paclitaxel, Orin 1001 was administered via oral gavage at 75, 150 or 300 mg/kg/day in combination with paclitaxel at 10 mg/kg iv, weekly (n=10/group) for up to 60 days.

[11] = system: human glioblastoma U-87 MG tumor cells; test: U-87 MG glioblastoma xenograft (Example 19); assay type: in vivo, female NCr nu/nu mice
Procedure: as §4, with “glioblastoma U-87 MG” for “ovarian carcinoma A2780”, “cells, a glioblastoma multiforme (GBM) cell line.” for “cells.”
The percent tumor growth delay was calculated using the following equation: TGD (%)=[T-C/C]×100; where T-C is the difference in time to tumor endpoint from Treated (T) and Control (C).
The time to tumor endpoint (TTE) for each animal was further calculated using the following equation: TTE (days)=log 10 (endpoint volume, mm^3)-b/m, where b is the intercept and m is the slope of the line obtained by linear regression of the log-transformed tumor growth data set.

[12] = system: HT-29 cells; test: XBP1s level induced in HT-29 cells; assay type: cell-based, human
Procedure: as §1, §2, §3

[13] = system: MM1s cells; test: XBP1s level induced in MM1s cells; assay type: cell-based, human
Procedure: as §1, §2, §3

[14] = Orin 1001 300 mg/kg/day oral 28 days, paclitaxel 15 mg/kg iv weekly, endpoint 2000 mm^3 or Day 60

COc1cc2ncnc(Nc3ccc(F)c(Cl)c3)c2cc1OCCCN1CCOCC1 [Gefitinib]
induction of XBP1s [1]: able to induce XBP1s | levels of XBP1s ([2]; 1 hour of treatment): increasing | levels of XBP1s ([2]; 2 hours of treatment): highest levels

CC(C)C[C@H](NC(=O)[C@H](Cc1ccccc1)NC(=O)c1cnccn1)B(O)O [Velcade®, [(1R)-3-methyl-1-[[(2S)-1-oxo-3-phenyl-2-[(pyrazinylcarbonyl)amino]propyl]amino]butyl] boronic acid]
level of XBP1s in tumor [3]: increased the level of XBP1s

Nc1ccn([C@@H]2O[C@H](CO)[C@@H](O)C2(F)F)c(=O)n1 [Gemcitabine]
induction of XBP1s [1]: able to induce XBP1s | levels of XBP1s ([4]; 1 hour of treatment): low levels | levels of XBP1s ([4]; 2 hours of treatment): low levels | levels of XBP1s ([4]; 4 hours of treatment): high levels

CNC(=O)c1cc(Oc2ccc(NC(=O)Nc3ccc(Cl)c(C(F)(F)F)c3)cc2)ccn1 [Sorafenib]
induction of XBP1s [1]: able to induce XBP1s | T/Cweight (%) ([5]; mean tumor weight treated / vehicle control, day 28): 19% | Tumor Weight (g) at day 28 ([5]; oral gavage 28 consecutive days, Orin 1001 80 mg/kg/day, sorafenib 45 mg/kg/day): 0.91 ± 0.29 g | Median Survival Time (MST) ([6]; Orin 1001 80 mg/kg/day q.d. 28 days, sorafenib 18.25/25/45 mg/kg, Kaplan-Meier): 24 days | ILS (%) (increase of life span) ([6]; versus vehicle group (group 1)): 20% | levels of XBP1s ([2]; 1 hour of treatment): highest levels | levels of XBP1s ([2]; 2 hours of treatment): highest levels | levels of XBP1s ([2]; 4 hours of treatment): modest levels

C=CCNC1=C2C[C@@H](C)C[C@H](OC)[C@H](O)[C@@H](C)/C=C(\C)[C@H](OC(N)=O)[C@@H](OC)/C=C\C=C(/C)C(=O)NC(=CC1=O)C2=O [17-AAG]
levels of XBP1s ([7]; 1 hour of treatment): high levels | levels of XBP1s ([7]; 2 hours of treatment): modest levels | levels of XBP1s ([7]; 4 hours of treatment): low levels | induction of XBP1s [1]: able to induce XBP1s | levels of XBP1s ([8]; 1 hour of treatment): high levels | levels of XBP1s ([8]; 2 hours of treatment): modest levels | levels of XBP1s ([8]; 4 hours of treatment): low levels

Clc1ccc(Nc2nnc(Cc3ccncc3)c3ccccc23)cc1 [Vatalinib]
ER stress measured by XBP1s level (FIG. 6) [1]: enhanced | induction of XBP1s [1]: able to induce XBP1s

CC(=O)O[C@H]1C(=O)[C@@]2(C)[C@H]([C@H](OC(=O)c3ccccc3)[C@]3(O)C[C@H](OC(=O)[C@H](O)[C@@H](NC(=O)c4ccccc4)c4ccccc4)C(C)=C1C3(C)C)[C@]1(OC(C)=O)CO[C@@H]1C[C@@H]2O [Paclitaxel]
percent tumor growth delay (TGD) [9]: 40% | induction of XBP1s [1]: able to induce XBP1s | levels of XBP1s ([4]; 1 hour of treatment): high levels | levels of XBP1s ([4]; 2 hours of treatment): modest levels | levels of XBP1s ([4]; 4 hours of treatment): modest levels | partial regressions [10]: 1 | percent tumor growth delay (TGD) [11, 14]: 17% | time to tumor endpoint (TTE) [11, 14]: 30.2 days | tumor delay effect over the control ([11]; each agent alone): not very significant

O=C(CCCCCCC(=O)Nc1ccccc1)NO [Vorinostat]
induction of XBP1s [1]: able to induce XBP1s | levels of XBP1s ([12]; 1 hour of treatment): high levels | levels of XBP1s ([12]; 2 hours of treatment): little | levels of XBP1s ([12]; 4 hours of treatment): little

CO[C@H]1C[C@@H]2CC[C@@H](C)[C@@](O)(O2)C(=O)C(=O)N2CCCC[C@H]2C(=O)O[C@H]([C@H](C)C[C@@H]2CC[C@@H](OC(=O)C(C)(CO)CO)[C@H](OC)C2)CC(=O)[C@H](C)/C=C(\C)[C@@H](O)[C@@H](OC)C(=O)[C@H](C)C[C@H](C)/C=C/C=C/C=C/1C [Torisel®, Temsirolimus]
ER stress measured by XBP1s level (FIG. 6) [1]: enhanced | induction of XBP1s [1]: able to induce XBP1s | levels of XBP1s ([2]; 1 hour of treatment): high levels | levels of XBP1s ([2]; 2 hours of treatment): modest levels | levels of XBP1s ([2]; 4 hours of treatment): high levels

Cc1cn(-c2cc(NC(=O)c3ccc(C)c(Nc4nccc(-c5cccnc5)n4)c3)cc(C(F)(F)F)c2)cn1 [Nilotinib]
induction of XBP1s [1]: able to induce XBP1s | XBP1s induced ([13]; 1 hour of treatment): modest amounts | XBP1s induced ([13]; 2 hours of treatment): greater than 50% | XBP1s induced ([13]; 4 hours of treatment): modest amounts
